Columns and labels:
CD3+ cells = assay: Proliferation of CD3+ cells purified from PBMC, BrdU; assay type: cell-based; conditions: Homo sapiens, ConA-stimulated, slightly higher than, read-out: IC50 proliferation of isolated CD3+ cells
Procedure: Blood samples were taken from healthy donors and loaded on a Ficoll density gradient to purify the PBMC population. T cells were purified by human anti-CD3 using an autoMACS instrument (Miltenyi Biotec, Bergisch-Gladbach, Germany), according to the manufacturer's instructions. The identity of T cells was confirmed by flow cytometry, as they stained positive for CD3. Cells were stimulated with ConA (10 μg/ml), ODN2006 (0.5 μg/ml; Enzo Life Sciences), or LPS (50 μg/ml; Sigma-Aldrich, Steinheim, Germany), for 72 h in the presence of the inhibitor, and their proliferation was measured in the BrdU incorporation assay as will be later described.
Proliferation was assessed by BrdU incorporation using a colorimetric ELISA kit (Roche, Germany). Subsequent to labeling with 10 μM BrdU, DNA was denatured and the cells were incubated with anti-BrdU-POD, prior to the addition of colorimetric substrate (TMB). The reaction product was quantified by measuring absorbance at 450 nm in an ELISA plate reader (ELx800 BIO-TEK Instruments Inc.).
PBMC consist of a mixture of mononucleated cells, mostly T cells. To identify the cell type that was inhibited by 2, we first purified T cells from PBMC with an autoMACS apparatus (Miltenyi Biotec), using anti-CD3 antibodies. We were now able to compare three cell populations: total PBMC, CD3+ cells purified from PBMC, and PBMC that had been depleted of CD3+ cells. […]

[1] = system: IL-2 secretion by 2C splenocytes stimulated by irradiated BALB/c splenocytes; assay: IL-2 levels in MLR supernatants; assay type: cell-based, mouse; conditions: 24, 48 and 72 h MLR; compound 2 up to 1 μM
Procedure: In the mixed lymphocyte reaction, stimulator cells cause responder cells to proliferate, owing to alloreactivity [Reich-Zeliger et al., 2004]. Splenocytes from 2c mice were stimulated by irradiated splenocytes from BALB/c mice in the presence of the evaluated compound at the concentrations specified. Cultures were incubated for 72 hours in 96-well plates.
Jurkat or PBMC cells were treated for 12 h with 1 μM, 0.5 μM or no inhibitor. Cells (1×10^6) were plated in 24-well plates (Nunc) and stimulated by C305 (dilution 1:500), anti-CD28 (1:100), PMA (50 ng/ml) or ionomycin (1 μM) for 12 h. Alternately, cells were stimulated for 24, 48 and 72 h in MLR. After stimulation cells were centrifuged at 130×g for 5 minutes at room temperature.
Supernatants were collected and IL-2 was assayed using the IL-2 ELISA kit (BioSource International USA, KH0022) according to the manufacturer's instructions. Absorbance was read at 450 nm in an ELISA plate reader (ELx800 BIO-TEK Instruments Inc.).
In vivo, T cells are stimulated by neighboring cells. In order to test the effect of 2 on cell-stimulated IL-2 secretion, the supernatants of splenocytes after 24, 48 and 72 h MLR were collected and analyzed for their IL-2 levels (FIG. 5C). […] At higher concentrations, no viable cells remained.

2C (stimulated) cells = assay: MLR with resting control cells, stimulated 2C cells; assay type: cell-based, mouse; conditions: 0.5 μM, 72 h MLR with IL-7; no inhibitor 3805
Excerpt: The aim of this test was to determine whether 2 affects only the proliferating cells or there is a general mechanism affecting all cell numbers. For this purpose we mixed 3 cell types: […]: BALB/c, 2C and OT1; […]: CB6F1, TEA and OT2. The OT1 and OT2 are splenocytes that were isolated from OT1 and OT2 mice (Jackson Laboratories, Bar Harbor, Me.),
Thus, the ability to monitor the fate of proliferation and resting cells by FACS was enabled due to the use of the MLR described above for CD4+ and CD8+ and the addition of OT2 and OT1 splenocytes, respectively.
Proliferating cells often secrete cytokines that induce survival of neighbouring cells; since the proliferation was expected to be inhibited we added 50 ng/ml of IL-7. This concentration is sufficient to keep the cells alive, but not to induce proliferation.
Irradiated Balb splenocytes were incubated for 72 h with 2C, and OT1 splenocytes in the presence of IL-7 W/O inhibitor.
The CD4+ and CD8+ were stimulated to proliferate, whereas in the absence of specific stimuli the OT1 and OT2 cell populations were resting, and theses cells were kept alive by the administration of IL-7. […] The number of 2C and OT1 cells that were treated with 0.5 μM 2 was 286 and 1148, respectively, while the number of 2C and OT1 cells that were treated with 0.5 μM 21 (control) was 4767 and 2468, respectively. This is depicted as a bar-graph in FIG. 8C.

Compound: COc1cc(-c2nc(Nc3ccc(C)cc3)c3ccccc3n2)cc(OC)c1OC [Compound 2, N-p-tolyl-2-(3,4,5-trimethoxyphenyl)quinazolin-4-amine]
- IC50 (CD3+ cells): > 100 nM
- IL-2 levels in MLR supernatants [1]: no visible decrease
- number of 2C (stimulated) cells (2C (stimulated) cells): 286

From patent publication US8759363B2, “Quinazoline-based T cell proliferation inhibitors” (Yissum Research Development Company of the Hebrew …, priority 2010, dated 2014)
